Patent US5712417A, “Inhibitors of retroviral proteases” (Abbott Laboratories, priority 1989, dated 1998)
Counter-ions that a name gives are not always drawn. Like-named read-outs stand apart in the source and are kept apart here.

Target: T1, HIV protease (Human immunodeficiency virus type 1 group M subtype B, UniProt P04585)
T1 construct: HIV protease consists of 99 amino acids and is evidently split off by itself from the pol polyprotein
Assay: Inhibition of HIV protease (cleavage of H-Ser-Phe-Asn-Phe-Opr-Gln-Ile-OH, HPLC)
Assay type: biochemical
In short: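 Substrate H-Ser-Phe-Asn-Phe-Opr-Gln-Ile-OH in MGTE buffer (MES, glycerol, Triton X-100, PMSF, pH 6) preincubated with inhibitor at 37 °C for 5-10 min, then reacted with protease at 35 °C for 2 h. RP18 HPLC at 215 nm; tetrapeptide fraction gives cleavage rate, IC50 where rate is halved.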

[1] = inhibitor concentration at which the cleavage rate is halved, pH 6, 2 hours, read-out: IC50

SMILES	IC50 [1]	further results
CC(C)[C@H](NC(=O)C(Cc1ccccc1)CS(=O)(=O)N1CCC(NC(=O)OC(C)(C)C)CC1)C(=O)N[C@@H](Cc1ccccc1)[C@@H](O)[C@H](O)[C@H](Cc1ccccc1)NC(=O)[C@@H](NC(=O)C(Cc1ccccc1)CS(=O)(=O)N1CCC(NC(=O)OC(C)(C)C)CC1)C(C)C (stereo partly drawn) [Example 98, N,N'-bis-<2-Benzyl-3-(4-tert.-butoxycarbonylamino-1-piperidylsulfonyl)-propionyl-L-valyl>-2S,5S-diamino-1,6-diphenylhexane-3R,4R-diol]	1000 nM	–
CC(C)[C@H](NC(=O)[C@@H](CC(=O)N1CCC(N)CC1)Cc1ccccc1)C(=O)N[C@@H](Cc1ccccc1)[C@@H](O)[C@H](O)[C@H](Cc1ccccc1)NC(=O)[C@@H](NC(=O)[C@@H](CC(=O)N1CCC(N)CC1)Cc1ccccc1)C(C)C [Example 99, N,N'-bis-<3-(4-Amino-1-piperidylcarbonyl-2R-benzyl-propionyl-L-valyl>-2S,5S-diamino-1,6-diphenylhexane-3R,4R-dioldihydrochloride]	–	IC50 (inhibitor concentration at which the cleavage rate is halved, Ex. 99, read-out: IC50): 15 nM
CC(C)[C@H](NC(=O)[C@@H](CC(=O)N1CCC(NC(=O)OC(C)(C)C)CC1)Cc1ccccc1)C(=O)N[C@@H](Cc1ccccc1)[C@@H](O)[C@H](O)[C@H](Cc1ccccc1)NC(=O)[C@@H](NC(=O)[C@@H](CC(=O)N1CCC(NC(=O)OC(C)(C)C)CC1)Cc1ccccc1)C(C)C [Example 100, N,N'-bis-<2R-Benzyl-3-(4-tert.-butoxycarbonylamino-1-piperidylcarbonyl)-propionyl-n-valyl>-2S,5S-diamino-1,6-diphenylhexane-3R,4R-diol dihydrochloride]	400 nM	–
CC(C)[C@H](NC(=O)[C@@H](CC(=O)OC(C)(C)C)Cc1ccccc1)C(=O)N[C@@H](Cc1ccccc1)[C@@H](O)[C@H](O)[C@H](Cc1ccccc1)NC(=O)[C@@H](NC(=O)[C@@H](CC(=O)OC(C)(C)C)Cc1ccccc1)C(C)C [Example 102, N,N'-bis-<(2R-Benzyl-3-tert.-butoxycarbonyl)-propionyl-L-valyl>-2S,5S-diamino-1,6-diphenylhexane-3R,4R-diol]	38 nM	–
CC(C)[C@H](NC(=O)[C@@H](CNC(=O)OC(C)(C)C)Cc1ccccc1)C(=O)N[C@@H](Cc1ccccc1)[C@@H](O)[C@H](O)[C@H](Cc1ccccc1)NC(=O)[C@@H](NC(=O)[C@@H](CNC(=O)OC(C)(C)C)Cc1ccccc1)C(C)C [Example 106, N,N,-bis-<(2R-Benzyl-3-tert.-butoxycarbonylamino)-propionly-L-valyl>-2S,5S-diamino-1,6-diphenylhexane-3R,4R-diol]	85 nM	–
CC(C)[C@H](NC(=O)[C@@H](N)Cc1ccccc1)C(=O)N[C@@H](CCc1ccncc1)[C@@H](O)[C@H](O)[C@H](CCc1ccncc1)NC(=O)[C@@H](NC(=O)[C@@H](N)Cc1ccccc1)C(C)C [Example 108, N,N'-bis-(L-Phenylalanyl-L-valyl)-3S,6S-diamino-1,8-di(4-pyridyl)-octane-,5R-diol tetrahydrochloride]	280 nM	–
CC(C)[C@H](NC(=O)[C@H](Cc1ccccc1)NC(=O)[C@H](O)[C@@H](O)[C@H](O)[C@H](O)CO)C(=O)N[C@@H](Cc1ccccc1)[C@@H](O)[C@H](O)[C@H](Cc1ccccc1)NC(=O)[C@@H](NC(=O)[C@H](Cc1ccccc1)NC(=O)[C@H](O)[C@@H](O)[C@H](O)[C@H](O)CO)C(C)C [Example 110, N,N'-bis-<D-Gluconyl-L-phenylalanyl-L-valyl>-2S,5S-diamino-1,6-diphenylhexane-3R,4R-diol]	–	IC50: 1 nM
CC(C)[C@H](NC(=O)[C@@H](N)Cc1ccccc1)C(=O)NC[C@@H](O)[C@H](O)CNC(=O)[C@@H](NC(=O)[C@@H](N)Cc1ccccc1)C(C)C [Example 113, N,N,-bis-<L-phenylalanyl-L-valyl>-1,4-diaminobutane-2R,3R-diol dihydrochloride]	40 nM	–
CC(C)[C@H](NC(=O)[C@H](CC1CCCCC1)NC(=O)OC(C)(C)C)C(=O)N[C@@H](Cc1ccccc1)[C@@H](O)[C@H](O)[C@H](Cc1ccccc1)NC(=O)[C@@H](NC(=O)[C@H](CC1CCCCC1)NC(=O)OC(C)(C)C)C(C)C [Example 115, N,N'-bis-<tert.-Butyloxycarbonyl-L-cyclohexylalanyl-L-valyl>-2S,5S-diamino-1,6-diphenylhexane-3R,4R-diol]	2200 nM	–
CC(C)[C@H](NC(=O)[C@@H](N)CC1CCCCC1)C(=O)N[C@@H](Cc1ccccc1)[C@@H](O)[C@H](O)[C@H](Cc1ccccc1)NC(=O)[C@@H](NC(=O)[C@@H](N)CC1CCCCC1)C(C)C [Example 116, N,N'-bis-<L-Cyclohexylalanyl-L-valyl>-2S,5S-diamino-1,6-diphenylhexane-3R,4R-diol dihydrochloride]	1.7 nM	–
CC(C)[C@H](NC(=O)[C@@H](N)Cc1c[nH]c2ccccc12)C(=O)N[C@@H](Cc1ccccc1)[C@@H](O)[C@H](O)[C@H](Cc1ccccc1)NC(=O)[C@@H](NC(=O)[C@@H](N)Cc1c[nH]c2ccccc12)C(C)C [Example 118, N,N'-bis-<L-Tryptophyl-L-valyl>-2S,5S-diamino-1,6-diphenylhexane-3R,4R-dioldihydrochloride]	–	IC50 (read-out: IC50): 1.2 nM
Cc1ccc(S(=O)(=O)N[C@@H](Cc2ccc3ccccc3c2)C(=O)N[C@H](C(=O)N[C@@H](Cc2ccccc2)[C@@H](O)[C@H](O)[C@H](Cc2ccccc2)NC(=O)[C@@H](NC(=O)[C@H](Cc2ccc3ccccc3c2)NS(=O)(=O)c2ccc(C)cc2)C(C)C)C(C)C)cc1 [Example 124, N,N'-bis-<N-Tosyl-β-naphthylalanyl-L-valyl>-2S, 5S-diamino-1,6-diphenylhexane-3R, 4R-diol]	11 nM	–

Further lines, with some results ahead:

IC50 [1]	SMILES	further results
6.5 nM	CC(C)[C@H](NC(=O)[C@@H](O)CCc1ccccc1)C(=O)N[C@@H](Cc1ccccc1)[C@H](O)[C@@H](O)[C@H](Cc1ccccc1)NC(=O)[C@@H](NC(=O)[C@@H](O)CCc1ccccc1)C(C)C [Example 94, N,N'-bis-<(2S-Hydroxy-4-phenylbutyryl)-L-valyl>-2S,5S-diamino-1,6-diphenylhexane-3S,4S-diol]	–
36 nM	CC(C)[C@H](NC(=O)C(Cc1ccccc1)CS(=O)(=O)N1CCC(N)CC1)C(=O)N[C@@H](Cc1ccccc1)[C@@H](O)[C@H](O)[C@H](Cc1ccccc1)NC(=O)[C@@H](NC(=O)C(Cc1ccccc1)CS(=O)(=O)N1CCC(N)CC1)C(C)C (stereo partly drawn) [Example 97, N,N'-bis-<3-(4-Amino-1-piperidylsulfonyl)-2-benzyl-propionyl-L-valyl>-2S,5S-diamino-1,6-diphenylhexane-3R,4R-diol]	–
8.5 nM	CC(C)[C@H](NC(=O)[C@H](Cc1ccccc1)OC1O[C@H]([C@H](O)CO)[C@H](O)[C@@H]1O)C(=O)N[C@@H](Cc1ccccc1)[C@@H](O)[C@H](O)[C@H](Cc1ccccc1)NC(=O)[C@@H](NC(=O)[C@H](Cc1ccccc1)OC1O[C@H]([C@H](O)CO)[C@H](O)[C@@H]1O)C(C)C (stereo partly drawn) [Example 107, N,N'-bis-<O-(D-Mannofuranosyl)-2S-hydroxy-3-phenyl-propionyl-L-valyl>-2S,5S-diamino-1,6-diphenylhexane-3R,4R-diol]	–
5 nM	CC(C)[C@H](NC(=O)[C@H](Cc1ccccc1)NC[C@@]1(O)OC[C@@H](O)[C@@H](O)[C@@H]1O)C(=O)N[C@@H](Cc1ccccc1)[C@H](O)[C@@H](O)[C@H](Cc1ccccc1)NC(=O)[C@@H](NC(=O)[C@H](Cc1ccccc1)NC[C@@]1(O)OC[C@@H](O)[C@@H](O)[C@@H]1O)C(C)C [Example 109, N,N'-bis-<N-(β-D-1-Deoxyfructos-1-yl-L-phenylalanyl-L-valyl>-2S,5S-diamino-1,6-diphenylhexane-3S,4S-diol diacetate]	–
19 nM	CC(C)[C@H](NC(=O)[C@H](Cc1c[nH]c2ccccc12)NC(=O)OCc1ccccc1)C(=O)N[C@@H](Cc1ccccc1)[C@@H](O)[C@H](O)[C@H](Cc1ccccc1)NC(=O)[C@@H](NC(=O)[C@H](Cc1c[nH]c2ccccc12)NC(=O)OCc1ccccc1)C(C)C [Example 117, N,N'-bis-<Benzyloxycarbonyl-L-tryptophyl-L-valyl>-2S,5S-diamino-1,6-diphenylhexane-3R,4R-diol]	–
10000 nM	CC(C)[C@H](NC(=O)[C@@H]1Cc2ccccc2CN1C(=O)OCc1ccccc1)C(=O)N[C@@H](Cc1ccccc1)[C@@H](O)[C@H](O)[C@H](Cc1ccccc1)NC(=O)[C@@H](NC(=O)[C@@H]1Cc2ccccc2CN1C(=O)OCc1ccccc1)C(C)C [Example 119, N,N'-bis-<Benzyloxycarbonyl-L-1,2,3,4-tetrahydro-isoquinolin-3-ylcarbonyl-L-valyl>-2S, 5S-diamino-1,6-diphenylhexane-3R, 4R-diol]	–
2 nM	CC(C)[C@H](NC(=O)[C@@H]1Cc2ccccc2CN1)C(=O)N[C@@H](Cc1ccccc1)[C@@H](O)[C@H](O)[C@H](Cc1ccccc1)NC(=O)[C@@H](NC(=O)[C@@H]1Cc2ccccc2CN1)C(C)C [Example 120, N,N'-bis-<L-1,2,3,4-Tetrahydroisoquinolin-3-ylcarbonyl-L-valyl>-2S,5S-diamino-1,6-diphenylhexane-3R,4R-diol diacetate]	–
22 nM	CC(C)[C@H](NC(=O)C(Cc1ccccc1)C[S+]([O-])Cc1ccccc1)C(=O)N[C@@H](Cc1ccccc1)[C@@H](O)[C@H](O)[C@H](Cc1ccccc1)NC(=O)[C@@H](NC(=O)C(Cc1ccccc1)C[S+]([O-])Cc1ccccc1)C(C)C (stereo partly drawn) [Example 121, N,N'-bis-<(2-(Benzylsulfinylmethyl)-3-phenylpropionyl)-L-valyl>-2S,5S-diamino-1,6-diphenylhexane-3R,4R-diol]	–
32 nM	CC(C)[C@H](NC(=O)C(Cc1ccccc1)CS(=O)(=O)Cc1ccc(Cl)cc1)C(=O)N[C@@H](Cc1ccccc1)[C@@H](O)[C@H](O)[C@H](Cc1ccccc1)NC(=O)[C@@H](NC(=O)C(Cc1ccccc1)CS(=O)(=O)Cc1ccc(Cl)cc1)C(C)C (stereo partly drawn) [Example 123, N,N'-bis-<(2-(p-Chlorobenzylsulfonylmethyl)-3-phenyl-propionyl)-L-valyl>-2S,5S-diamino-1,6-diphenylhexane-3R,4R-diol]	–
